Experimental findings from patent US20250026724A1, “(1,4,5-TRISUBSTITUTED 1H-PYRAZOL-3-YL)OXY-2-ALKYLTHIOALKYL ACIDS AND -ALKYL ACID DERIVATIVES, SALTS THEREOF AND USE THEREOF AS ACTIVE HERBICIDAL INGREDIENTS” (BAYER AKTIENGESELLSCHAFT, priority 2021, published 2025) are described below.

What all share (experiment): Post-emergence herbicidal action, greenhouse pot trial
What all share (assay type): in vivo

Assay [1] has as its system Abutilon theophrasti (ABUTH). Conditions: visual rating after about 3 weeks; for pest or weed control at 320 g/ha: read-out: Post-emergence effect at 320 g/ha against ABUTH in %. Here is the method: (§1) Seeds of monocotyledonous and dicotyledonous weeds and crop plants are placed in sandy loam in plastic or organic planting pots, covered with soil and cultivated in a greenhouse under controlled growth conditions. 2 to 3 weeks after sowing, the trial plants are treated at the one-leaf stage. The compounds of the invention, formulated in the form of wettable powders (WP) or as emulsion concentrates (EC), are then sprayed onto the green parts of the plants as aqueous suspension or emulsion with addition of 0.5% additive at a water application rate equivalent to 600 l/ha. After about 3 weeks of keeping the trial plants in the greenhouse under optimum growth conditions, the effect of the preparations is rated visually in comparison to untreated controls. For example, 100% activity=the plants have died, 0% activity=like control plants.
(§2) Tables B1 to B14 below show the effects of selected compounds of the general formula (I) according to Table 1 on various harmful plants and at an application rate corresponding to 320 g/ha or lower, which were obtained by the trial procedure specified above. The appendices “a”, “b” and “c” give differentiation by dosage used with otherwise the same harmful plants tested.
(§3) As shown by results from Tables B1 to B19, inventive compounds of the general formula (I) in the case of post-emergence treatment have good herbicidal efficacy against harmful plants, for example Abutilon theophrasti (ABUTH), Alopecurus myosuroides (ALOMY), Amaranthus retroflexus (AMARE), Avena fatua (AVEFA), Digitaria sanguinalis (DIGSA), Echinochloa crus-galli (ECHCG), Bassia scoparia (KCHSC), Lolium rigidum (LOLRI), Matricaria inodora (MATIN), Pharbitis purpurea (PHBPU), Polygonum convolvulus (POLCO), Setaria viridis (SETVI), Veronica persica (VERPE) and Viola tricolor (VIOTR) at an application rate of 320 g of active substance or less per hectare, and good crop plant compatibility in the case of organisms such as Oryza sativa (ORYSA), Zea mays (ZEAMX), Brassica napus (BRSNW), Glycine max (GLXMA) and Triticum aestivum (TRZAS) at an application rate of 320 g or less per hectare.

Assay [2] has as its system Amaranthus retroflexus (AMARE). To be noted: visual rating after about 3 weeks; for pest or weed control at 320 g/ha: read-out: Post-emergence effect at 320 g/ha against AMARE in %. Here is the method:
as §1, §2, §3

Assay [3] relates to Avena fatua (AVEFA). To be noted: 320 g/ha, visual rating after about 3 weeks; for pest or weed control at 320 g/ha: Avena fatua, 504 h, read-out: Post-emergence effect at 320 g/ha against AVEFA in %. How it is done: as §1, §2, §3
In assay [4] the test system is Bassia scoparia (KCHSC). Conditions: Bassia scoparia, 504 h, read-out: Post-emergence effect against KCHSC. Here is the method: as §1, §2, §3
The subject of assay [5] is Digitaria sanguinalis (DIGSA). Conditions: 320 g/ha, visual rating after about 3 weeks; for pest or weed control at 320 g/ha: Digitaria sanguinalis, 504 h, read-out: Post-emergence effect at 320 g/ha against DIGSA in %. Here is the method: as §1, §2, §3
Assay [6] has as its system Echinochloa crus-galli (ECHCG). Conditions: 320 g/ha, visual rating after about 3 weeks; for pest or weed control at 320 g/ha: Echinochloa crus-galli, 504 h, read-out: Post-emergence effect at 320 g/ha against ECHCG in %. Here is the method:
as §1, §2, §3

Assay [7] deals with Matricaria inodora (MATIN). Conditions: 320 g/ha, visual rating after about 3 weeks; for pest or weed control at 320 g/ha: Tripleurospermum inodorum, 504 h, read-out: Post-emergence effect at 320 g/ha against MATIN in %. How it is done: as §1, §2, §3
In assay [8] the test system is Pharbitis purpurea (PHBPU). Conditions: visual rating after about 3 weeks; for pest or weed control at 80 g/ha / pest or weed control at 320 g/ha: Ipomoea purpurea, 504 h; for pest or weed control at 80 g/ha: read-out: Post-emergence effect at 80 g/ha against PHBPU in %; for pest or weed control at 320 g/ha: read-out: Post-emergence effect at 320 g/ha against PHBPU in %. Here is the method: as §1, §2, §3

Assay [9] deals with Polygonum convolvulus (POLCO). To be noted: visual rating after about 3 weeks; for pest or weed control at 320 g/ha: read-out: Post-emergence effect at 320 g/ha against POLCO in %. Here is the method:
as §1, §2, §3

The test system of assay [10] is Setaria viridis (SETVI). Conditions: visual rating after about 3 weeks; for pest or weed control at 320 g/ha: Setaria viridis, 504 h, read-out: Post-emergence effect at 320 g/ha against SETVI in %. Here is the method: as §1, §2, §3
Assay [11] deals with Viola tricolor (VIOTR). Conditions: for pest or weed control at 320 g/ha / pest or weed control at 80 g/ha: Viola tricolor, 504 h, read-out: Post-emergence effect against VIOTR. How it is done:
as §1, §2, §3

Assay [12] concerns Lolium rigidum (LOLRI). Conditions: Lolium rigidum, 504 h, 320 g/ha, visual rating after about 3 weeks, read-out: Post-emergence effect at 320 g/ha against LOLRI in %. Here is the method: as §1, §2, §3
The subject of assay [13] is Alopecurus myosuroides (ALOMY). To be noted: Alopecurus myosuroides, 504 h, 320 g/ha, visual rating after about 3 weeks, read-out: Post-emergence effect at 320 g/ha against ALOMY in %. How it is done:
as §1, §2, §3

Setting [14] is: Abutilon theophrasti, 504 h, 320 g/ha.
Setting [15] is: Amaranthus retroflexus, 504 h, 320 g/ha.
[16] abbreviates: Fallopia convolvulus, 504 h, 320 g/ha.

Turning to `CSC(Oc1nn(-c2ncccc2F)c(-c2ccc(F)nc2)c1Br)C(=O)O` (single isomer, unassigned) [Example I-24], the pest or weed control at 320 g/ha in [1] (setting [14]) came out at 80%; in assay [2] (setting [15]), 80%; in assay [3], 80%; in assay [4] it was 80%; in assay [5], 90%; in assay [6], 90%. The pest or weed control at 320 g/ha in [7] worked out at 80%; in [8] (320 g/ha), 90%; in [9] (setting [16]), 90%; in [10] (320 g/ha) it was 90%; in assay [11] (320 g/ha), 90%. The figures for the pest or weed control at 80 g/ha in [4] (80 g/ha) and in assay [8] were 80% and 90%, respectively.
As for `COC(=O)C(Oc1nn(-c2ncccc2F)c(-c2ccc(F)nc2)c1Br)SC` (single isomer, unassigned) [Example I-27], in [1] (80 g/ha), the “Post-emergence effect at 80 g/ha against ABUTH in %” value stood at 80%. In [1] (320 g/ha), the “Post-emergence effect at 320 g/ha against ABUTH in %” value was found to be 90%. The “Post-emergence effect at 80 g/ha against AMARE in %” value in assay [2] (80 g/ha) is 80%. In addition, in assay [2] (320 g/ha), the “Post-emergence effect at 320 g/ha against AMARE in %” value amounted to 80%. In addition, the “Post-emergence effect at 320 g/ha against AVEFA in %” value in assay [3] is given as 90%. Further, in [4], the pest or weed control at 320 g/ha was 80%. In [5], the “Post-emergence effect at 320 g/ha against DIGSA in %” value worked out at 90%. Moreover, the “Post-emergence effect at 320 g/ha against ECHCG in %” value in [6] was 90%. Also, the “Post-emergence effect at 320 g/ha against MATIN in %” value in assay [7] was found to be 80%. In addition, in assay [8] (320 g/ha), the “Post-emergence effect at 320 g/ha against PHBPU in %” value is 100%. In addition, the “Post-emergence effect at 20 g/ha against POLCO in %” value in assay [9] (20 g/ha) was 80%. Further, the “Post-emergence effect at 80 g/ha against POLCO in %” value in assay [9] (80 g/ha) amounted to 80%. Moreover, in [9] (320 g/ha), the “Post-emergence effect at 320 g/ha against POLCO in %” value is 90%. Besides, the “Post-emergence effect at 320 g/ha against SETVI in %” value in assay [10] (320 g/ha) was 90%. Moreover, the “Post-emergence effect against VIOTR” value in assay [11] (80 g/ha) was determined as 80%; in [11] (320 g/ha), 90%.
For `CCOC(=O)C(Oc1nn(-c2ccccc2)c(-c2ccc(F)nc2)c1Br)SC` (stereo not drawn) [Example I-04], the pest or weed control at 320 g/ha in [1] (setting [14]) is 80%; in assay [5] it was 80%; in assay [6], 80%; in assay [12], 90%; in assay [7], 90%; in [9] (setting [16]), 90%. Also, the pest or weed control at 320 g/ha in [10] (320 g/ha) and in assay [11] (320 g/ha) was 90% each time. The pest or weed control at 80 g/ha in assay [9] (Fallopia convolvulus, 504 h, 80 g/ha, read-out: Post-emergence effect at 80 g/ha against POLCO in %) came to 80%; in assay [11] (80 g/ha), 80%.
Consider `CCOC(=O)C(Oc1nn(-c2cnccn2)c(-c2ccc(F)nc2)c1Cl)SC` (stereo not drawn) [Example I-16], for which the pest or weed control at 320 g/ha in assay [13], in [6], in assay [8] (320 g/ha) and in assay [9] (setting [16]) was 80% in each case.
For the molecule `CCOC(=O)C(Oc1nn(-c2cnccn2)c(-c2ccc(F)nc2)c1Br)SC` (stereo not drawn) [Example I-17], the pest or weed control at 320 g/ha in assay [2] (setting [15]), in [3], in assay [5], in assay [6], in [8] (320 g/ha) and in assay [10] (320 g/ha) was 80% in each case. Moreover, the pest or weed control at 80 g/ha in assay [8] is 80%.
`CCOC(=O)C(Oc1nn(-c2ncccc2F)c(-c2ccc(F)nc2)c1Cl)SC` (stereo not drawn) [Example I-19]: the pest or weed control at 320 g/ha in [1] (setting [14]) came out at 90%; in assay [2] (setting [15]) it was 90%; in [3] it was 100%; in [5], 80%; in [6], 100%; in assay [12], 100%. The pest or weed control at 320 g/ha in assay [7] stood at 90%; in [8] (320 g/ha) it was 90%; in [9] (setting [16]) it was 90%; in assay [10] (320 g/ha), 90%; in assay [11] (320 g/ha), 100%. For the same molecule, the pest or weed control at 80 g/ha turned out to be 80% in assay [2] (Amaranthus retroflexus, 504 h, 80 g/ha, read-out: Post-emergence effect at 80 g/ha against AMARE in %); 80% in assay [8]; 90% in assay [11] (80 g/ha).
For the molecule `CSC(Oc1nn(-c2cnccn2)c(-c2ccc(F)nc2)c1Br)C(=O)O` (stereo not drawn) [Example I-36], the pest or weed control at 320 g/ha in assay [1] (setting [14]) came out at 80%; in assay [13], 90%; in [4], 90%; in assay [8] (320 g/ha), 90%; in assay [9] (setting [16]), 90%; in assay [11] (320 g/ha) it was 80%.
Take `CSC(Oc1nn(-c2cnccn2)c(-c2ccc(F)nc2)c1Cl)C(=O)O` (stereo not drawn) [Example I-37]: the pest or weed control at 320 g/ha in assay [1] (setting [14]) was 80%; in assay [13] it was 90%; in assay [4], 90%; in [8] (320 g/ha), 90%; in [9] (setting [16]), 90%; in assay [11] (320 g/ha) it was 80%.
Consider `COC(=O)C(Oc1nn(-c2ccccc2F)c(-c2ccc(F)nc2)c1I)SC` (stereo not drawn) [Example I-52], for which the pest or weed control at 320 g/ha in assay [1] (setting [14]) stood at 80%; in [2] (setting [15]), 90%; in [5] it was 80%; in assay [6], 90%; in assay [12], 100%; in assay [7], 80%. In addition, the pest or weed control at 320 g/ha in [9] (setting [16]), in assay [10] (320 g/ha) and in [11] (320 g/ha) was 90% each time. Also, the “Post-emergence effect at 80 g/ha against SETVI in %” value in assay [10] (80 g/ha) turned out to be 80%. In addition, in assay [11] (80 g/ha), the pest or weed control at 80 g/ha is 80%.
Consider `COC(=O)C(Oc1nn(-c2ncccc2F)c(-c2ccc(F)nc2)c1C1CC1)SC` (stereo not drawn) [Example I-59], for which the pest or weed control at 80 g/ha in [1] (Abutilon theophrasti, 504 h, 80 g/ha, read-out: Post-emergence effect at 80 g/ha against ABUTH in %) turned out to be 80%; in assay [8], 90%; in [11] (80 g/ha) it was 80%. The pest or weed control at 320 g/ha in assay [1] (setting [14]) turned out to be 90%; in assay [3], 90%; in assay [6] it was 90%; in assay [12], 90%; in assay [8] (320 g/ha) it was 90%; in [11] (320 g/ha), 80%.
